Results from PubChem BioAssay AID179 (DTP/NCI, 2004).
Where “and” joins values, the source holds several entries; their conditions need not be identical. Equal values may be shown once. Calls of active or inactive are those of the source.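 How the source made its calls: active means compounds giving half or more protection of infected cells from virus-caused growth loss, again on retest; inactive means the rest.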

System: CEM cells HIV-1 protection, formazan growth assay
Test: NCI AIDS Antiviral Assay
Conditions: for IC50: measured here: growth of uninfected CEM cells
Method in brief: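 Human CEM cells, uninfected and HIV-1-infected, exposed to five drug concentrations; growth measured by soluble formazan assay and scored as percent protection from infection, with protecting compounds retested.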

Compound | EC50 | IC50 | outcome
C=CC(C)(C)c1c(OC)oc2ccc(OC)c(C)c2c1=O | > 200 µM | 38.9 µM | –
[CH2+][B-]1(C)n2ccc[n+]2[B-](C)(C)[n+]2cccn21 | > 200 µM | > 100 µM | –
CCOc1csc([C@H]2CCC3[C@@H]4CC=C5C[C@@H](O)CC[C@]5(C)C4CC[C@@]32C)n1 (stereo not given in full) | > 3.39 µM | > 3.39 µM | –
CCCC(=O)OCC1(Cl)CCC2c3c(c4ccccc4n3C)CC1N2Cc1ccccc1 (stereo not given) | > 11.5 µM | 6.92 µM | –
COC1/C=C/OC2(C)Oc3c(C)c(O)c4c(O)c(c(/C=N/N(c5ccccc5)c5ccccc5)c(O)c4c3C2=O)NC(=O)C(C)=C/C=C/C(C)C(O)C(C)C(O)C(C)C(OC(C)=O)C1C (stereo not given) | > 200 µM | 7.41 µM | –
O=C1CCCC(=O)C1=C(O)CCCCCCCCCCc1ccccc1 | > 38 µM | > 38 µM | –
Cc1c(O)c(OC2OC(CO)C(O)C(O)C2O)cc2c1CC[C@@H]1C2(C)C(=O)C[C@]2(C)[C@@H]([C@@](C)(O)C3CCC(C)(C)O3)[C@H](O)C[C@@]12C (stereo not given in full) | > 200 µM | > 200 µM | –
O=c1[nH]cc(CCl)c(=O)[nH]1 | > 200 µM | > 200 µM | –
N=C1SCc2c1sc1ccccc21 | > 56.2 µM | 28.8 µM | –
CCN(CC)CCN1CC(=O)N2Cc3ccccc3CN2C(=O)C1 | > 200 µM | > 200 µM | –
C/C(=N\NC(N)=O)c1ccc(Cl)cc1 | > 123 µM | > 123 µM | –
CSc1nc2c(n1-c1ccccc1)C(=O)C(OS(=O)(=O)c1ccccc1)C(=O)N2 (stereo not given) | > 200 µM | > 200 µM | –
COc1ccc(/C=C/c2onc3c(=O)n(C)nc(-c4ccccc4)c23)cc1 | > 20 µM | > 20 µM | –
CC(=O)Nc1ccc(C(=O)N2N=C(C)/C(=C/c3cccc([N+](=O)[O-])c3)C2=O)cc1 | > 47.9 µM | > 47.9 µM | –
CC1(C)OC2OC(COC(=O)C=[N+]=[N-])C3OC(C)(C)OC3C2O1 (stereo not given) | > 200 µM | > 200 µM | –
COc1ccc2c(c1)CCc1[nH]c3ccccc3c1CCCC2 | > 61.7 µM | 57.5 µM | –
Cc1cc(S(=O)(=O)n2ccnc2Oc2cccc(Cl)c2)c(SSc2cc(Cl)c(C)cc2S(=O)(=O)n2ccnc2Oc2cccc(Cl)c2)cc1Cl | 8.13 µM | 13.8 µM | –
CCCC(=O)[O-].N.N.N.N.N.[Co+3].[O-][Cl+3]([O-])([O-])[O-] | – | – | inactive
CC(C(=O)O)c1ccc(-n2nnc3c(=O)[nH][nH]c(=O)c32)cc1 (stereo not given) | > 200 µM | > 200 µM | –
O=C(O)c1nn(-c2ccccc2)nc1-c1nn(-c2ccccc2)nc1C(=O)O | > 200 µM | > 200 µM | –
CCOC(=O)Nc1sc2c(c1C#N)CCCC2 | 41.7 µM | 105 µM | –

Compound | EC50 | IC50 | outcome
Cc1ccc(C)c(NC(=O)C(=O)C(C(=O)c2ccc3ccccc3c2)C2OC(=O)c3ccccc32)c1 (stereo not given) | > 53.7 µM | 23.4 µM | –
CCCN1CN(C(C(=O)N[C@@H]2C(=O)N3C(C(=O)O)=C(C)CSC23)c2ccccc2)CSC1=S (stereo not given in full) | > 355 µM | 204 µM | –
CC(=O)Nc1ccc(/C=N\N2C(=O)c3ccccc3C2=O)cc1 | > 61.7 µM | > 61.7 µM | –
O=C(Nc1cccc(Cl)c1)C(=O)C(C(=O)c1ccc2ccccc2c1)C1OC(=O)c2ccccc21 (stereo not given) | > 74.1 µM | 33.9 µM | –
CCOC(CCNCC(OCC)OCC)OCC | > 200 µM | > 200 µM | –
CCOC(=O)C(/C=N/C(N)=S)=C(/O)c1ccccc1 | > 200 µM | > 200 µM | –
COc1ccc([C@H]2[C@H]3COC(=O)[C@H]3C(C#N)=C3Sc4ccccc4N32)cc1 | > 200 µM | 12.9 µM | –
O=C(O)c1c(F)c(F)c(S)c(F)c1F | 17.8 µM | > 200 µM | –
N#Cc1nc(/C=C/c2ccccc2)oc1N | > 501 µM | 112 µM | –
COc1cc2c(c(OC)c1OC)CCC1C(=O)NN=C21 (stereo not given) | > 912 µM | 102 µM | –
O=c1cc(-c2ccccc2)oc2c(O)c(O)cc(O)c12 | > 186 µM | > 186 µM | –
Nc1ccc(/C=C/c2ccnc3ccccc23)c(N)c1 | 0.0631 µM | 79.4 µM | –
CN(N=O)C(=O)N[C@@H](C=O)[C@@H](O)[C@H](O)[C@H](O)CO | > 933 µM | > 933 µM | –
CCOC(=O)CCC(NC(=O)OCc1ccccc1)C(=O)NC(CCC(=O)OCC)C(=O)NC(CCC(=O)OCC)C(=O)NC(CCC(=O)OCC)C(=O)NC(CCC(=O)OCC)C(=O)NC(CCC(=O)OCC)C(=O)NC(CCC(=O)OCC)C(=O)NC(CCC(=O)OCC)C(=O)NC(CCC(=O)OCC)C(=O)NC(CCC(=O)OCC)C(=O)NC(CCC(=O)OCC)C(=O)NC(CCC(=O)OCC)C(=O)OCC (stereo not given) | – | – | inactive
O=C(O)/C(Cl)=C(\Cl)C(=O)NC1C2CC3CC(C2)CC1C3 (stereo not given) | – | – | inactive
Nc1nc(=O)n(C2CC(O)C(CO)O2)c2nc(-c3ccc(-c4ccccc4)cc3)cnc12 (stereo not given) | > 200 µM | > 200 µM | –
C(=N\NC1=NCCN1)/c1ccc(-c2cn3cc(/C=N/NC4=NCCN4)ccc3n2)cc1 | > 53.7 µM | 3.72 µM | –
Cc1cccc(N=Cc2ccc(N(CCC#N)S(=O)(=O)c3ccccc3)cc2C)c1 | > 224 µM | 145 µM | –
O=C(C[n+]1ccccc1)N=N/C(C(=O)Nc1c(Cl)c(O)c2ccccc2c1O)=C1/C(=O)Oc2cc(O)ccc2C1=O | > 22.4 µM | 12 µM | –
CCCCCCCCCCCCCCCCOC[C@@H](COC1OC(CO)C(O)C(O)C1O)OCCCCCCCCCCCCCCCC (stereo not given in full) | > 4.07 µM | > 4.07 µM | –
C1=Cc2nc1c(-c1ccncc1)c1ccc([n-]1)c(-c1ccncc1)c1nc(c(-c3ccncc3)c3ccc([n-]3)c2-c2ccncc2)C=C1.[Zn+2] | > 19.1 µM | > 19.1 µM | –

Compound | EC50 | IC50 | outcome
CC(=O)O[C@@H]1O[Si](C(C)(C)C)(C(C)(C)C)[C@H](C)[C@H]1C | > 100 µM | > 100 µM | –
CCOP(=O)(OCC)/C(C#N)=C\c1ccccc1 | > 355 µM | > 355 µM | –
COc1c(O)c(O)cc2c1-c1ccc(OC)c(=O)cc1C(NC(C)=O)CC2 (stereo not given) | > 200 µM | 1.05 µM | –
CC/C=C\C/C=C\C/C=C\CCCCCCCC(=O)OCC(COC1OC(CS(=O)(=O)O)C(O)C(O)C1O)OC(=O)CCCCCCCCCCCCCCC (stereo not given) | > 10 µM | 5.62 µM | –
NC(=O)c1c2c(cc3c(=O)c4ccccc4[nH]c13)CCCC2 | – | – | inactive
O=C1CSC(c2ccc(Cl)cc2Cl)N1c1ccc(Oc2ccc(Cl)cc2)c(Cl)c1 (stereo not given) | > 100 µM | 26.3 µM | –
Cc1[nH]n(-c2nc(O)c(C)c(=O)[nH]2)c(=O)c1CCO | > 200 µM | > 200 µM | –
CC(=O)OC1CCn2nnc(CO[Si](C)(C)C(C)(C)C)c21 (stereo not given) | – | – | inactive
c1csc(-c2cc(-c3ccsc3)c(-c3cccs3)s2)c1 | > 200 µM | 107 µM | –
[Cu+2].[O-]/N=C/c1ccc[oH+]1.[O-]/N=C/c1ccc[oH+]1 | > 200 µM | 11.7 µM | –
CCCS(=N)(=O)CCC(N)C(=O)O (stereo not given) | > 200 µM | > 200 µM | –
Nc1nc(Cl)c(CO)c(NCC2(CO)CC(CCc3ccccc3)C2)n1 (stereo not given) | > 20 µM | 0.129 µM | –
Nc1ccn(C2CC(O)C(COP(O)(=S)OC3CC(n4ccc(N)nc4=O)OC3CO)O2)c(=O)n1 (stereo not given) | > 200 µM | > 200 µM | –
O=c1oc2ccccc2c(O)c1C1c2c(c3ccccc3oc2=O)Oc2c1c(=O)oc1ccccc21 | – | – | inactive
CCC1C(c2ccccc2)=CCC(C(=O)O)C1C (stereo not given) | > 200 µM | > 200 µM | –
CCC1(O)CC(OC2CC(N(C)C)C(OC3CC4OC5CC(=O)C(C)OC5OC4C(C)O3)C(C)O2)c2c(cc3c(c2O)C(=O)c2c(O)ccc(O)c2C3=O)C1C(=O)OC (stereo not given) | > 2.4 µM | 0.0155 µM and 0.012 µM | –
N#C/C(=C\c1ccc(Cl)cc1)c1ccccc1[N+](=O)[O-] | > 200 µM | 120 µM | –
CC1CN=C(NS(=O)(=O)c2cc(C(=O)Nc3ccccc3)c(Cl)cc2S)NN1 (stereo not given) | > 200 µM | 19.1 µM | –
CC(=O)OCc1c2ccccc2c(C)c2c1cc(F)c1ccccc12 | – | – | inactive
COCN1C(=O)[C@@H]2CCCN2C(=O)c2ccc([N+](=O)[O-])cc21 | > 200 µM | > 200 µM | –
COC(=O)/C(=C\Nc1cccc(C)n1)S(=O)(=O)c1ccc(C)cc1 | > 200 µM | 66.1 µM | –

Compound | EC50 | IC50 | outcome
O=C(O)c1ccc[n+](CC(=O)c2ccc(O)c(O)c2)c1 | 0.0631 µM | > 200 µM | –
Cc1nnc2n(c1=O)CCN2C | > 200 µM | > 200 µM | –
Cc1c(/C=N/NC(=S)N2CCCCC2)c(=O)n(-c2ccccc2)n1C | > 200 µM | 28.8 µM | –
CC(=O)Nc1ccc2[nH]c(C(=O)N3CC(CCl)c4c3cc([N+](=O)[O-])c3ccccc43)cc2c1 (stereo not given) | > 2 µM | 1.7 µM | –
Cc1cnc2c(c1)C(=O)C1=C(OC(C)(C)CC1O)C2=O (stereo not given) | > 26.3 µM | 3.39 µM | –
COc1ccc(OC)c(/C=C(\C#N)c2ccc([N+](=O)[O-])cc2)c1 | > 200 µM | > 200 µM | –
O=C1c2ccccc2C(=O)C2OC12 (stereo not given) | > 20 µM | 0.977 µM | –
O=c1cc(S(=O)(=O)Cc2ccccc2)[nH]c(=O)[nH]1 | > 135 µM | > 135 µM | –
O=C(Nc1nc2ccccc2n1Cc1ccc(Cl)cc1)NC12CC3CC(CC(C3)C1)C2 | > 200 µM | > 200 µM | –
Cc1ccc2c(c1)C(=O)N(CC[P+](c1ccccc1)(c1ccccc1)c1ccccc1)C2=O | > 200 µM | 30.9 µM | –
Cc1cn(C2CC(N=[N+]=[N-])C(COC(=O)CCCCCCCCCCCBr)O2)c(=O)[nH]c1=O (stereo not given) | – | 37.2 µM | active
CC(C)C(C=O)C(O)(C(F)(F)F)C(F)(F)F (stereo not given) | > 200 µM | > 200 µM | –
CCOc1ccccc1C1N2CCN(CC2)C(c2ccccc2OCC)N2CCN1CC2 (stereo not given) | – | – | inactive
CN1C(c2ccccc2)=C(C#N)C(=O)CC(c2cccs2)N1C (stereo not given) | > 200 µM | 191 µM | –
O=C(CS)Nc1cccc(O)c1 | > 200 µM | > 200 µM | –
O=C(O)C1=CC=CC(=C(c2ccc(O)c(C(=O)O)c2)c2ccc(O)c(C(=O)O)c2)C1=O | > 380 µM | > 380 µM | –
COc1cc2c3c(c1)ncn3C(=O)CS2 | > 200 µM | > 100 µM | –
CC(=O)C(SSC(C(C)=O)C(C)=O)C(C)=O | > 200 µM | 8.51 µM | –
Cc1[nH]c(=O)nc2[nH][nH]c(=O)c12 | – | – | inactive
